Results: ChEMBL document CHEMBL1130623, “Novel cytokine release inhibitors. Part II: Steroids” (Bioorg Med Chem Lett, 1998)

What was measured:
[1] = species on record: Homo sapiens; assay: (§1) Compound was evaluated for inhibition of Interleukin (IL1-beta) release in human monocytes.; format: functional
[2] = species on record: Homo sapiens; assay: Compound was evaluated for percentage inhibition of Interleukin (IL1-beta) release in human monocytes at a concentration of 1000 nM.; format: functional
[3] = species on record: Homo sapiens; assay: Compound was evaluated for percentage inhibition of Interleukin (IL1-beta) release in human monocytes at a concentration of 3000 nM.; format: functional
[4] = as §1; format: functional, cell-based

Row | SMILES | IC50 [1] | inhibition at 1 µM [2] | further results
1 | CC(=O)Oc1cc2c(c(C)c1OC(C)=O)[C@H]1CC[C@]3(C)[C@@H](OC(C)=O)CC[C@H]3[C@@H]1C=C2 | 150 nM | – | –
2 | C[C@]12CC[C@@H]3c4ccc(O)cc4C=C[C@H]3[C@@H]1CCC2=O | – | 1% | –
3 | C[C@]12CC[C@H]3[C@@H](C=CC4=CC(=O)C(O)=C[C@@]43C)[C@@H]1CC[C@@H]2O | 3000 nM | – | –
4 | C[C@]12CC[C@H]3[C@@H](CCC4=CC(=O)C(O)=C[C@@]43C)[C@@H]1CC[C@@H]2O | – | – | inhibition at 3 µM [3]: 36%
5 | CC(=O)OC1=C[C@@]2(C)C(=CC1=O)C=C[C@H]1[C@@H]3CC[C@H](OC(C)=O)[C@@]3(C)CC[C@@H]12 | 3000 nM | – | –
6 | CC1=C(O)C(=O)C=C2C1=CC=C1[C@@]2(C)CC[C@@]2(C)[C@@H]3C[C@](C)(C(=O)O)CC[C@]3(C)CC[C@]12C [CELASTROL] | – | – | IC50 [4]: 40 nM
7 | C[C@]12CCc3c(ccc4cc(O)ccc34)[C@@H]1CCC2=O [EQUILENIN] | – | 27% | –
8 | C[C@]12CC[C@H]3C(=CCc4cc(O)ccc43)[C@@H]1CCC2=O [EQUILIN] | – | -11% | –
9 | COC(=O)[C@]1(C)CC[C@]2(C)CC[C@]3(C)C4=CCc5c(cc(OC(C)=O)c(OC(C)=O)c5C)[C@]4(C)CC[C@@]3(C)[C@@H]2C1 [PRISTIMEROL DIACETATE] | 80 nM | – | –
